One test deals with MM.1S line. The experiment in a line: activity in MM.1S line. The class given is cell-based. The settings on record: multiple myelome derived line.
Test [1] concerns IKZF family of linage specific transcription factors. The experiment in a line: activity against IKZF family transcription factors. Type of test: cell-based.
The test system of test [2] is human AML lines (EOL-1, MOLM-13, MV4;11). In words: viability of human AML lines, 7 days. The class given is cell-based.
Test [3] deals with all cellular proteins in MOLM-13 cells. The experiment in a line: whole-cell lysate proteomics. Type of test: cell-based, human. As to conditions: 100 nM for 2 hours.
Another test addresses BRD4 (Homo sapiens, UniProt O60885). The experiment in a line: BRD4 immunoblot in MOLM-13 cells. As to conditions: MOLM-13, 4hr, western blot. (A western blot detects proteins with antibodies after separation by electrophoresis.)
A further test concerns the target T1, BRD7 (Homo sapiens, UniProt Q9NPI1).
T1 sequence (Q9NPI1 1-651): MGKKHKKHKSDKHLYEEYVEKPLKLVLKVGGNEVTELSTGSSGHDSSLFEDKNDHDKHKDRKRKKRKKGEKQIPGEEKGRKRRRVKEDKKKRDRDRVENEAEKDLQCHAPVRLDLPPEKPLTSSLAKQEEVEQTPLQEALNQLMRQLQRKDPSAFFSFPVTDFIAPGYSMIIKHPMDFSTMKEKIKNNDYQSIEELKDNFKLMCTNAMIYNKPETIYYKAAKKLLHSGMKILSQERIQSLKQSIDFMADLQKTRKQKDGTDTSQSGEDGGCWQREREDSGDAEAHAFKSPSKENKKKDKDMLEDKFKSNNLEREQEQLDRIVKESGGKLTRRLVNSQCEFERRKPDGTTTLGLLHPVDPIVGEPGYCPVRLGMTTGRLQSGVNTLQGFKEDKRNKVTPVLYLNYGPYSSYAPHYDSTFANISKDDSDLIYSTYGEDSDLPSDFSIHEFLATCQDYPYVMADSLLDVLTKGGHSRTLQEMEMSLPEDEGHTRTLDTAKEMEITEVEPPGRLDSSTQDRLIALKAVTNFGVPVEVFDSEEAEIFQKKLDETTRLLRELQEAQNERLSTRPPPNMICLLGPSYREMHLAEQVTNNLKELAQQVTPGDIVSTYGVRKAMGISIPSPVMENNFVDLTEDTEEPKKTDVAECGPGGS
In words: BRD7 immunoblot in MOLM-13 cells. As to conditions: MOLM-13, 4hr, western blot.

For another test, the system named is MOLM-13. In words: viability of MOLM-13. Type of test: cell-based, human. The settings on record: MOLM-13 transduced with wild type BRD9.
Test [4] relates to IKZF family of linage specific transcription factors. The settings on record: cited from earlier work.

As for `COc1cc(-c2cn(C)c(=O)c3cnccc23)cc(OC)c1CN(C)CC(=O)NCCOCCOCCNc1cccc2c1C(=O)N(C1CCC(=O)NC1=O)C2=O` (stereo not shown) [dBRD9], the “activity in MM.1S” value in the test on MM.1S line is recorded as “dBRD9 sensitive”. The “activity against IKZF family” value in test [1] was “retain activity”. The “anti-proliferative effect” value in test [2] (EOL-1, MOLM-13, MV4;11, 7 days) was “potent anti-proliferative effect”. Also, the “half-maximal anti-proliferative concentration” value in test [2] (human AML lines) is listed as “low nanomolar”. Besides, in test [3], the “change in BRD4 or BRD7 levels” value is “no significant change” and the “difference in levels of other proteins (99% of proteins)” value is reported as “less than 0.30 fold”. At BRD4, the “off target degradation activity on BRD4” value was “not detectable”. The “off target degradation activity on BRD7” value at BRD7 is listed as “not detectable”. In the test with MOLM-13, the “sensitivity with viral expression of exogenous wild type BRD9” value is reported as “shifted sensitivity, but to an intermediate degree”.

For the compound `Cc1sc2c(c1C)C(c1ccc(Cl)cc1)=N[C@@H](CC(=O)NCCCCNC(=O)COc1cccc3c1C(=O)N(C1CCC(=O)NC1=O)C3=O)c1nnc(C)n1-2` (stereo partly shown) [dBET-1], the “activity against IKZF family, earlier report” value in test [4] is recorded as “not previously observed”.

The record behind these values is article PMC5967236 (Angewandte Chemie (International ed. in English), 2017).
